Measurements: patent US10940188B2, “Compounds and methods for treatment and prevention of Flavivirus infection” (priority 2016, dated 2021)
Like-named read-outs stand apart in the source and are kept apart here.

Key:
[1] = system: ZIKV-induced cell death in human astrocytes; assay: ATP cell viability assay for ZIKV-induced cell death, human astrocytes; assay type: cell-based
[2] = system: ZIKV-induced cell death in hNPCs; assay: ATP cell viability assay for ZIKV-induced cell death, hNPCs; assay type: cell-based, human; settings: for IC50: Homo sapiens
Protocol: (§1) The reagent was reconstituted and prepared as described by the manufacturer. In order to measure the cell death caused by ZIKV infection, cells were cultured for 16 hours at 37° C. with 5% CO2 in assay plates, followed by the addition of ZIKV solution and incubation at 37° C. with 5% CO2 for 72 hours. ATPlite, the ATP monitoring reagent, was then added to the assay plates and they were incubated for 15 minutes. The resulting luminescence was measured using the ViewLux plate reader (Perkin Elmer). Data were normalized using the wells without cells as a control for 100% cell killing, and cell-containing wells without ZIKV infection were used as full cell viability (0% cell killing).
Human NPCs were seeded onto PDL coated 1536-well assay plates at 250 cells per 3 μl/well and incubated at 37° C. in 5% CO2 for 16 hours. Test compounds dissolved in DMSO were transferred to assay plates at a volume of 23 nl/well by an automated pintool workstation (Wako Automation, San Diego, Calif.). Compounds were incubated with cells for 30 minutes at 37° C. in 5% CO2, immediately followed by the addition of 2 μl/well of ZIKV. Incubation time of compound-treated cells with ZIKV varied based on assay format. Experiments measuring virus-induced caspase 3/7 activity required a 6 hour incubation of ZIKV in the presence compounds at 37° C. in 5% CO2. Following this incubation, 3.5 μl/well of caspase 3/7 reagent mixture was added to assay plates. The plates were incubated for 30 minutes at room temperature, and the resultant luminescence signal was measured using a ViewLux plate reader (Perkin Elmer). Experiments measuring virus-induced cell death required a 72-hour incubation of ZIKV in the presence of compounds at 37° C. in 5% CO2. Following this incubation, 3.5 μl/well of ATP content detection reagent was added to assay plates, incubated for 30 minutes at the room temperature, and the resultant luminescence signal was measured in a ViewLux plate reader.
as §1, with “The ATPlite luminescence assay system assay kit (PerkinElmer) was used to determine cell viability. The reagent” for “The reagent”, “by the manufacture. In order” for “by the manufacturer. In order”, “followed by addition of” for “followed by the addition of”, “plates and incubated for” for “plates and they were incubated for”, “Elmer). Data was normalized using” for “Elmer). Data were normalized using”
Human NPCs were seeded onto PDL coated 1536-well assay plates at 250 cells per 3 μl/well and incubated at 37° C. in 5% CO2 for 16 hours. Test compounds dissolved in DMSO were transferred to assay plates at a volume of 23 nl/well by an automated pintool workstation (Wako Automation, San Diego, Calif.). Compounds were incubated with cells for 30 minutes at 37° C. in 5% CO2, immediately followed by the addition of 2 μl/well of ZIKV. Incubation time of compound-treated cells with ZIKV varied based on assay format. Experiments measuring virus induced caspase 3/7 activity required a 6 hour incubation of ZIKV in the presence compounds at 37° C. in 5% CO2. Following this incubation, 3 μl/well of caspase 3/7 reagent mixture was added to assay plates, incubated for 30 minute at room temperature, and the resultant luminescence signal was measured using a ViewLux plate reader (Perkin Elmer). Experiments measuring the virus induced cell death required a 72 hour incubation of ZIKV in the presence of compounds at 37° C. in 5% CO2. Following this incubation, 3 μl/well of ATP content detection reagent was added to assay plates, incubated for 30 minute at room temperature, and the resultant luminescence signal was measured in a ViewLux plate reader.

[3] = Astrocyte, ZIKV-infected human astrocytes, read-out: Cell viability (IC50, uM) Astrocyte
[4] = Homo sapiens, Astrocyte, following ZIKV infection, read-out: IC50 (μM) for improving cell viability, Astrocytes
[5] = ZIKV-infected hNPCs, read-out: Cell viability (IC50, uM) NPCs

Molecule | Cell viability (efficacy, %) Astrocyte ([1]; ZIKV-infected human astrocytes) [%] | Cell viability (efficacy, %) NPCs ([2]; ZIKV-infected hNPCs) [%] | further results
Cc1cccc(C#Cc2ccccc2)n1 [MPEP, 2-Methyl-6-(phenylethynyl)pyridine] | 0.0 | 0.0 | –
CN(C)CCCSc1ccccc1NC(=O)/C=C/c1ccccc1 [Cinanserin] | 0.0 | 0.0 | –
O=C(c1ccccc1)c1ccc2n1CCC2C(=O)O (centres unmarked) [Ketorolac tromethamine] | 0.0 | 0.0 | –
Vitamin B12 | 0.0 | 0.0 | –
C/C1=C2/[N-][C@H]([C@H](CC(N)=O)[C@@]2(C)CCC(=O)NC[C@@H](C)OP(=O)([O-])O[C@H]2[C@@H](O)[C@@H](n3cnc4cc(C)c(C)cc43)O[C@@H]2CO)[C@]2(C)N=C(/C(C)=C3N=C(/C=C4N=C1[C@@H](CCC(N)=O)C\4(C)C)[C@@H](CCC(N)=O)[C@]\3(C)CC(N)=O)[C@@H](CCC(N)=O)[C@]2(C)CC(N)=O.[Co+3].[OH-] [Hydroxocobalamin] | 0.0 | 0.0 | –
CN1CC(=O)NC1=NC(=O)Nc1cccc(Cl)c1 [Fenobam] | 0.0 | 0.0 | –
O=C(O)c1ccccc1Nc1cccc(C(F)(F)F)c1 [Flufenamic acid] | 0.0 | 0.0 | –
O=C(OCc1ccccc1)c1ccc(O)cc1 [Benzylparaben] | 0.0 | 0.0 | –
CC(C(=O)O)c1ccc(C(=O)c2cccs2)cc1 (centres unmarked) [Suprofen] | 0.0 | 0.0 | –
C[C@H](NC(=O)C(=O)Nc1ccccc1C(C)(C)C)C(=O)N[C@@H](CC(=O)O)C(=O)COc1c(F)c(F)cc(F)c1F [Emricasan] | 98.7 | 54.4 | IC50 [1, 3]: 4.11 µM; IC50 [1, 4]: 4.11 µM; IC50 [2, 5]: 3.88 µM; IC50 ([2]; following ZIKV infection, read-out: IC50 (μM) for improving cell viability, hNPCs): 3.88 µM
Cc1cc(O)c2c(c1)C(=O)c1cc(O)cc(O)c1C2=O [Emodin] | 0.0 | 0.0 | –
O=C(O)CCC(=O)c1ccc(-c2ccccc2)cc1 [Fenbufen] | 0.0 | 0.0 | –
COc1cccc(-c2ccc(NC(=O)C3=C(C(=O)O)CCC3)c(F)c2)c1 [Vidofludimus] | 0.0 | 0.0 | –
COc1ccc(-c2cc(=S)ss2)cc1 [Anethole trithione] | 0.0 | 0.0 | –
Cc1cccc(/C=C/c2ccccc2)n1 [SIB 1893] | 0.0 | 0.0 | –
O=C(Nc1ccc(C(=O)O)c(O)c1)c1ccccc1 [Benzoylpas] | 0.0 | 0.0 | –
CC(C(=O)O)c1ccc(C(=O)c2ccccc2)s1 (centres unmarked) [Tiaprofenic acid] | 0.0 | 0.0 | –
c1ccc2[nH]c(-c3cscn3)nc2c1 [Thiabendazole] | 0.0 | 0.0 | –

Molecule | Cell viability (efficacy, %) Astrocyte ([1]; ZIKV-infected human astrocytes) [%] | Cell viability (efficacy, %) NPCs ([2]; ZIKV-infected hNPCs) [%] | further results
Cc1ccc(O)c(-n2nc3ccccc3n2)c1 [2-(2H-Benzotriazol-2-yl)-4-methylphenol] | 0.0 | 0.0 | –
CN1CCN(c2cc3c(nn2)Oc2ccccc2N3C)CC1 [Pipofezine] | 0.0 | 0.0 | –
CCC(C(=O)O)c1ccc(N2Cc3ccccc3C2=O)cc1 (centres unmarked) [Indobufen] | 0.0 | 0.0 | –
c1ccc(CCNc2nc(-c3ccccc3)cs2)cc1 [Fanetizole] | 0.0 | 0.0 | –
Nc1nc2ccc([N+](=O)[O-])cc2s1 [2-Amino-6-nitrobenzothiazole] | 0.0 | 0.0 | –
O=C1NC(=O)/C(=C/c2ccc(-c3ccc(F)cc3O)o2)S1 [AS-252424] | 0.0 | 0.0 | –
O=C(Oc1ccccc1)c1cccc(C(=O)Oc2ccccc2)c1 [Diphenyl isophthalate] | 0.0 | 0.0 | –
CC(=O)Oc1cccc2c1C(=O)c1c(OC(C)=O)cc(C(=O)O)cc1C2=O [Diacerein] | 35.2 | 0.0 | IC50 [1, 3]: 30.8 µM
O=C1c2ccccc2C(=O)c2c1ccc(O)c2O [Alizarin] | 0.0 | 0.0 | –
Flurbiprofen axetil | 0.0 | 0.0 | –
O=S(=O)(O)c1ccc2[nH]c(-c3ccccc3)nc2c1 [Ensulizole] | 0.0 | 0.0 | –
O=C(Nc1ccc([N+](=O)[O-])cc1Cl)c1cc(Cl)ccc1O [Niclosamide] | 51.2 | – | IC50 [1, 3]: 1.73 µM; IC50 [1, 4]: 1.73 µM
O=C(O)c1ccccc1NCCc1ccccc1 [Enfenamic acid] | 0.0 | 58.5 | IC50 [2, 5]: 7.74 µM
CCOCCOC(=O)C=Cc1ccc(OC)cc1 [2-Ethoxylethyl-p-methoxycinnamate] | 0.0 | 0.0 | –
O=C1NC(=O)C(=Cc2ccc(-c3ccc(F)cc3)o2)S1 [CAY10505] | 0.0 | 0.0 | –
O=C(O)c1cc([N+](=O)[O-])ccc1NCCCc1ccccc1 [5-Nitro-2-(3-phenylpropylamino)benzoic acid] | 0.0 | 0.0 | –
CC(=O)Nc1ccc([C@H](C)C(=O)Nc2ncc(C(C)C)s2)cc1 [PHA-690509] | 81.9 | – | IC50 ([1]; ZIKV-infected human astrocytes, read-out: Cell viability (IC50, uM) Astrocyte): 7.74 µM; IC50 ([1]; following ZIKV infection, read-out: IC50 (μM) for improving cell viability, Astrocytes): 7.47 µM
N#CC1(c2ccc(NC(=O)c3cccnc3NCc3ccncc3)cc2)CCCC1 [Apatinib] | 0.0 | 0.0 | –
